Measurements as given in patent US20070015817A1, “4-((4-(2-pyrrolidinylethoxy)phenyl)methyl)-3-(4-(trifluoromethyl)phenyl)-7-hydroxychromen-2one, pharmaceutically acceptable salts thereof and methods of use therewith” (priority 2002, published 2007).

Experiments:
Type in all cases: cell-based
[1] = test system: IL-6 release from human U-2 OS osteosarcoma cells stably transfected with human ER-α; assay: Inhibition of IL-6 release; details: U2OS; U-2 OS cells transfected with human ER-α, stimulated with 2.5 ng/ml TNFα and 1 ng/ml IL-1, IL-6 by ELISA after 24 h, relative to vehicle
Protocol: Illustrative benzopyranone compounds were tested for their ability to inhibit IL-6 release from human U-2 OS osteosarcoma cells stably transfected with human ER-α. (Stein, B.; Yang, M. X. Mol. Cell. Biol 15: 4971-4979, 1995; Poli, V. et. al., EMBO J. 13:1189-1196, 1994). […] Benzopyranone compounds having an IC50<100 nM are particularly useful as bone resorption inhibitors in vivo. Accordingly, the compounds of this assay, illustrative benzopyranone compounds, are particularly useful for the treatment of osteoporosis, Paget's disease and metastatic bone cancer. These compounds are also useful as anti-cancer agents as elevated IL-6 levels are responsible for certain cancers such as multiple myeloma, prostate cancer, ovarian cancer, renal carcinoma and cervical carcinoma.
Human U-2 OS osteosarcoma cells (ATCC) were stably transfected with expression vectors for human full-length ER-α using standard molecular biology techniques. Stable subclones were generated that expressed high levels of ER-α mRNA. The expression of ER-α was confirmed using RNase protection analysis.
Cells were plated into 96-well plates at a density of 80,000 cells per well in phenol red-free media with charcoal-stripped fetal calf serum. Twenty four hours later, cells were either treated with vehicle (0.2% DMSO) or test compound (0.01 B 100 nm in 0.2% DMSO). Thirty minutes later cells were stimulated with 2.5 ng/ml TNFα and 1 ng/ml IL-1. Twenty-four hours later the media supernatant was analyzed for cytokine production (IL-6) using commercially available ELISA kits following the manufacturer=s instructions. Cytokine production in the presence of vehicle (0.2% DMSO) was set to 100%. The results are expressed as IC50 (nM) values (Table 2) which is the concentration of the benzopyranone compound necessary to inhibit the production of IL-6 50% relative to the amount of IL-6 produced in the presence of vehicle.

[2] = test system: MCF-7 breast cancer cells; assay: Inhibition of MCF-7 breast cancer cell proliferation; details: Homo sapiens, MCF7; 0.1 nM 17β-estradiol-dependent growth, 72 h, 3H-thymidine incorporation
Protocol: MCF-7 cells represent an excellent in vitro system to study the effects of compounds on estrogen-dependent breast cancer growth. (May, F.E.B.; Westley, B. R. J. Biol. Chem. 262:15894-15899, 1987). Benzopyranone compounds having an IC50<100 nM are particularly useful as anti-breast cancer agents in vivo.
MCF-7 breast carcinoma cells were plated in 24-well dishes at a density of 5×10^3 cells/well in phenol-red free DMEM:F-12 (1:1) medium containing 1% antibiotics, 0.05% mercaptoethanol, 0.01% ethanolamine, 0.42 ng/mL sodium selenite and 5% charcoal-stripped FCS.
Illustrative benzopyranone compounds (0.1-1000 nM in 0.2% DMSO) and 0.1 nM 17β-estradiol were added to the cultured MCF-7 breast cancer cells for 72 h. Subsequently, 3H-labeled thymidine was added and its incorporation into cells was measured following 4h incubation. The results are expressed as IC50 (nM) values (Table 2) which is the concentration of the benzopyranone compound necessary to inhibit the growth of MCF-7 breast cancer cells by 50% relative to controls.

[3] = test system: BG-1 ovarian carcinoma cells; assay: Inhibition of BG-1 ovarian carcinoma cell proliferation; details: 0.1 nM 17β-estradiol-dependent growth, 72 h, 3H-thymidine incorporation
Protocol: BG-1 cells serve as a useful in vitro model for the evaluation of the effects of antiestrogenic compounds on ovarian tumor growth (Greenberger, L. M. et. al., Clin. Cancer Res. 7:3166-3177, 2001). Benzopyranone compounds having an IC50<100 nM are particularly useful as anti-ovarian cancer agents in vivo.
BG-1 ovarian carcinoma cells were plated in 24-well dishes at a density of 5×10^3 cells/well in phenol-red free DMEM:F-12 (1:1) medium containing 1% antibiotics, 0.05% mercaptoethanol, 0.01% ethanolamine, 0.42 ng/mL sodium selenite and 5% charcoal-stripped FCS. Illustrative benzopyranone compounds (0.1-1000 nM in 0.2% DMSO) and 0.1 nM 17β-estradiol were added to the cultured BG-1 ovarian carcinoma cells and incubated for 72 h. Subsequently, ^3H-labeled thymidine was added and its incorporation into cells was measured following 4h incubation. The results are expressed as IC50 (nM) values (Table 2) which is the concentration of the benzopyranone compound necessary to inhibit the growth of BG-1 ovarian carcinoma cells by 50% relative to controls.

SMILES | IC50 [1] [nM] | IC50 [2] [nM] | IC50 [3] [nM]
O=c1oc2cc(O)ccc2c(Cc2ccc(OCCN3CCCC3)cc2)c1-c1ccc(C(F)(F)F)cc1 | 1.5 | 13.6 | 13.6
O=c1oc2cc(O)ccc2c(Cc2ccc(OCCN3CCCC3)cc2)c1-c1ccc(C(F)(F)F)cc1Cl | 0.5 | 4.5 | 4.65
O=c1oc2cc(O)ccc2c(Cc2ccc(OCCN3CCCC3)cc2)c1-c1ccc(C(F)(F)F)cc1C(F)(F)F | 1 | 26 | 5.5

The next molecules have a lower IC50 [1] than those just listed; values first:

IC50 [1] [nM] | IC50 [2] [nM] | IC50 [3] [nM] | SMILES
0.4 | 3 | 2.3 | O=c1oc2cc(O)ccc2c(Cc2ccc(OCCN3CCCC3)cc2)c1-c1ccc(Cl)cc1C(F)(F)F
0.4 | 26 | 5.8 | O=c1oc2cc(O)ccc2c(Cc2ccc(OCCN3CCCC3)cc2)c1-c1ccc(Cl)cc1
0.29 | 6.5 | 1.4 | O=c1oc2cc(O)ccc2c(Cc2ccc(OCCN3CCCC3)cc2)c1-c1ccc(Cl)cc1Cl
